Data reported in US5883287A, “Vinyl sulfide compounds and a process for their preparation” (Lumigen, Inc., priority 1997, dated 1999).

Columns and labels:
Assay type in all cases: physicochemical
[1] = First order decay of chemiluminescence (base-induced decay) of hydroxyphenyl alkoxy or aryloxy dioxetanes in alkaline buffer; settings: 37° C.; 0.2M 221 buffer, pH 9.6, 0.88 mM Mg+2, 1.0 mg/mL 1-trioctylphosphoniummethyl-4-tributylphosphoniummethylbenzene dichloride
Procedure: Comparison of Rates of Base-Induced Decay of Hydroxy-phenyl Alkoxy or Aryloxy Dioxetanes. The first order decay of chemiluminescence of dioxetanes 14-19 in 0.2M 2-methyl-2-amino-1-propanol (221) buffer, pH 9.6 containing 0.88 mM Mg^+2 and 1.0 mg/mL of 1-trioctylphosphoniummethyl-4-tributylphosphoniummethylbenzene dichloride was measured at 37° C. in a Turner Designs (Sunnyvale, Calif.) model TD-20e luminometer. The half-lives of decay of chemiluminescence (t1/2) of hydroxy-dioxetanes correlate with the times required to reach the maximum light intensity (Imax) in the alkaline phosphatase-triggered decomposition of the corresponding phosphate-dioxetanes under the same conditions. […] It is expected that, for example, the phosphate derivatives of dioxetanes 14-19 as well as others which can be produced by the process described herein will be useful in alkaline phosphatase-linkedassays known in the art.

[2] = Stability of dioxetane on silica (TLC versus NMR); settings: TLC on silica compared with 1H NMR
Procedure: (c) Synthesis of 4-ethylthio-4-(3-pivaloyloxyphenyl)spiro[1,2-dioxetane-3,2'-tricyclo[3.3.1.1^3,7 ]decane] (2). A small photooxygenation apparatus was charged with 60 mg (0.16 mmol) of the vinyl sulfide, 180 mg of polymer-bound Rose Bengal (U.S. Pat. No. 4,315,998), and 20 mL of CH2 Cl2 dried over MgSO4. The resulting mixture was then cooled to -78° C. with oxygen bubbling through it. After several minutes, the reaction solution was irradiated with a 1000 W sodium lamp for 25 min. […] The sensitizer was filtered off, the solvent evaporated at 0° C. and the material examined by ^1 H NMR.

[3] = First order decay of chemiluminescence (base-induced decay) of hydroxyphenyl alkylthio dioxetane in alkaline buffer with surfactant enhancers; settings: 0.2M 221 buffer pH 9.6, 0.88 mM Mg+2, ambient temperature
Procedure: Comparison of Rates of Base-Induced Decay of a Hydroxyphenyl Alkylthio Dioxetane. The first order decay of chemiluminescence of dioxetane 3 in 0.2M 221 buffer, pH 9.6 containing 0.88 mM Mg^+2 and the surfactant enhancers shown below was measured at ambient temperature. Surfactant A is CTAB, B is poly(vinylbenzyltributylphosphonium chloride), C is poly(vinylbenzyltributylphosphonium chloride)-co-poly(vinylbenzyltrioctylphosphonium chloride), D is 1-trioctylphosphoniummethyl-4-tributylphosphoniummethylbenzene dichloride.

SMILES	t1/2 of decay of chemiluminescence [1] [min]	other results
Oc1cccc(C2(OCC(Cl)Cl)OOC23C2CC4CC(C2)CC3C4)c1 (stereo not shown) [Dioxetane 16, 4-(2,2-Dichloroethoxy)-4-(3-hydroxyphenyl)spiro[1,2-dioxetane-3,2'-tricyclo-[3.3.1.1^3,7]decane]]	4.1	
CCSC1(c2cccc(OC(=O)C(C)(C)C)c2)OOC12C1CC3CC(C1)CC2C3 (stereo not shown) [Dioxetane 2, 4-Ethylthio-4-(3-pivaloyloxyphenyl)spiro[1,2-dioxetane-3,2'-tricyclo-[3.3.1.1^3,7]decane]]		stability on silica [2]: less stable on silica
Oc1cccc(C2(OCC(F)(F)C(F)(F)F)OOC23C2CC4CC(C2)CC3C4)c1 (stereo not shown) [Dioxetane 17, 4-(3-Hydroxyphenyl)-4-(2,2,3,3,3-pentafluoropropoxy)spiro[1,2-dioxetane-3,2'-tricyclo[3.3.1.1^3,7]decane]]	3.4	
Oc1cccc(C2(Oc3c(F)cccc3F)OOC23C2CC4CC(C2)CC3C4)c1 (stereo not shown) [Dioxetane 19, 4-(2',6'-Difluorophenoxy)-4-(3-hydroxyphenyl)spiro[1,2-dioxetane-3,2'-tricyclo[3.3.1.1^3,7]decane]]	1.76	
Oc1cccc(C2(Sc3ccc(F)cc3)OOC23C2CC4CC(C2)CC3C4)c1 (stereo not shown) [Dioxetane 3, 4-(p-Fluorophenylthio)-4-(3-hydroxyphenyl)spiro[1,2-dioxetane-3,2'-tricyclo[3.3.1.1^3,7]decane]]		t1/2 of decay of chemiluminescence ([3]; Surfactant A (CTAB) 0.41 g/L): 11.2 min; t1/2 of decay of chemiluminescence ([3]; Surfactant B (poly(vinylbenzyltributylphosphonium chloride)) 0.5 g/L): 4.2 min; t1/2 of decay of chemiluminescence ([3]; Surfactant C (poly(vinylbenzyltributylphosphonium chloride)-co-poly(vinylbenzyltrioctylphosphonium chloride)) 0.5 g/L): 2.9 min; t1/2 of decay of chemiluminescence ([3]; Surfactant D (1-trioctylphosphoniummethyl-4-tributylphosphoniummethylbenzene dichloride) 1.0 g/L): 2.0 min
Oc1cccc(C2(OCC(Cl)(Cl)Cl)OOC23C2CC4CC(C2)CC3C4)c1 (stereo not shown) [Dioxetane 15, 4-(3-Hydroxyphenyl)-4-(2,2,2-trichloroethoxy)spiro[1,2-dibxetane-3,2'-tricyclo[3.3.1.1^3,7]decane]]	3.7	
Oc1cccc(C2(OCC(F)(F)C(F)(F)C(F)(F)F)OOC23C2CC4CC(C2)CC3C4)c1 (stereo not shown) [Dioxetane 18, 4-(2,2,3,3,4,4,4-Heptafluorobutoxy)-4-(3-hydroxyphenyl)spiro[1,2-dioxetane-3,2'-tricyclo[3.3.1.1^3,7]decane]]	4.9	
